Laboratory results published in PMC11947101, “A phase Ia study of the MEK1/2 inhibitor PD-0325901 with the c-MET inhibitor crizotinib in patients with advanced solid cancers” (BJC Reports, 2025).

Tests used:
[1] = Plasma pharmacokinetics (HPLC-MS/MS) of crizotinib, PD-0325901 and PD-0315209 in patients; format: in vivo, human; conditions: for Decrease in pre-dose concentrations on Days 21 compared to Day -1: Cycle 1 and 2, PD-0325901 8 mg B.D dose only; for Tmax: plasma, po, combination treatment, 4 dose levels, read-out: Time of peak plasma concentrations after oral dosing
Procedure: PK trough samples (pre-dose and 2-h post dose) were obtained on day 21 of cycles 2, 4, 6, 8, 10 and 12. Plasma concentrations were determined using a validated high-performance liquid chromatography mass spectrometry (HPLC-MS/MS) assay following solid-phase extraction of the plasma sample.

[2] = tested on: pERK1/2 and pMEK1/2 levels in skin biopsies; assay: Pharmacodynamic markers in paired skin biopsies by Western blotting; format: in vivo, human; conditions: in particular at 8 mg B.D PD-0325901
Procedure: All patients consented to a fresh frozen punch skin biopsy during screening and on cycle 1 day 15 (±7 days). PD markers of MEK1/2 inhibition (pMEK1/2 and pERK1/2 levels) in skin biopsies were assessed by Western blotting, previously described [18, 30]. […] Western blot images were developed using the G:BOX Chemi XX6 gel doc system (Syngene, Cambridge, UK). Densitometry on Western blot images was performed using ImageJ software.

[3] = tested on: patients with advanced solid tumours; conditions: in vivo
Description: (§1) Patients could remain on combination treatment until disease progression or predefined unacceptable toxicity. At each dose level and before escalation to the next level, a safety study board comprising representatives from the study sponsor and collaborating investigators reviewed individual patient safety and DLTs. DLTs were defined as an almost certainly or probable drug-related adverse events to either drug (Supplementary Table S1), during the first cycle of treatment.
(§2) Safety assessments comprised of physical examination including vital signs, weight, ECOG PS assessment, documentation of adverse events (AEs) and concomitant medication, with regular monitoring of haematology and biochemistry. Ophthalmic examinations (including visual acuity, pressure, perimetry, slit lamp examination, fundoscopy, and optical coherence tomography), ECG and Echocardiography/MUGA were performed at baseline and at pre-defined time-points during the trial. […] At this stage, patients were not required to have measurable disease. Anti-tumour activity was assessed by radiological investigations according to revised RECIST, version 1.1, at baseline (within 28 days before day 1 of cycle 1), then every 2 cycles and at the end of treatment.
(§3) Safety and efficacy data were summarised using descriptive statistics. Evaluable patients for toxicity were those patients that received at least one dose of one or both drugs. Evaluable patients for MTD or dose escalation were those patients who completed cycle 1 or withdrew early for experiencing a DLT. Response analyses (i.e., RECIST 1.1) were performed on an intention-to-treat basis, and any patient who received any dose of study treatment was evaluable for response. Progression-free-survival (PFS) was defined as the time between receiving the first dose of study medication (cycle 1, day -7) to disease progression or death from any cause. Overall survival (OS) was defined as the time between cycle 1, day -7 to death from any cause.

[4] = tested on: patients with advanced malignancies; conditions: cited from earlier work
[5] = tested on: pERK1/2; design: method as in PMID 20215549; conditions: doses ≥2 mg PD-0325901 B.D; cited from earlier work
[6] = tested on: patients with advanced solid tumours; assay: Phase Ia dose-escalation: safety, DLT and MTD of PD-0325901 with crizotinib
Description: as §1, §2, §3

[7] = tested on: cMET; conditions: cited from earlier work

SMILES | Decrease in pre-dose concentrations on Days 21 compared to Day -1 [1] | pMEK1/2 levels in skin biopsies, post- vs pre-treatment [2] | Serious adverse events thought to be drug-related [3] | Maximum tolerated dose (MTD), single agent ([4]; continuously, subsequently revised due to late retinal vein occlusion) | Doses resulting in intolerable toxicity, single agent ([4]; irrespective of the schedule) | AUC at day 21 compared to day 1 (first dose), single agent ([4]; multiple B.D dosing) | Suppression of pERK1/2 in melanoma patient samples [5] [%] | Maximum tolerable dose (MTD) of PD-0325901 in combination with crizotinib ([6]; days 1–21 of 28-day cycle, with crizotinib 200 mg B.D) [mg B.D] | Plasma concentrations relative to those required to inhibit MEK1/2 activity ([1]; all dose levels) | Tmax ([1]; human) [h] | Pre-clinically predicted effective concentration to inhibit c-MET [7] [ng/mL] | Number of drug-related adverse events determined to be related to the named drug ([6]; all cohorts, combination treatment) | Patients requiring a dose reduction of the named drug due to DR-AEs ([6]; combination treatment, all cohorts) | Maximum tolerable dose (MTD) of crizotinib in combination with PD-0325901 ([6]; continuously (days 1–28), with PD-0325901 8 mg B.D) [mg B.D] | Steady state on multiple dosing ([1]; Cycle 1 Day 21 vs Cycle 1 Day 28) | Median trough plasma concentrations ([1]; all cohorts (data not shown)) [ng/mL] | Increase in crizotinib Cmax, Cmin and AUC0-10h with B.D dosing (cohorts 2-4) compared with cohort 1 (O.D) ([1]; days 21 and 28, p < 0.05) | Effect of PD-0325901 dose escalation (cohort 2 to cohort 4) on PK parameters of crizotinib ([1]; human, in vivo)
O=C(O)c1ccc(F)c(F)c1Nc1ccc(I)cc1F [PD-0315209] | 1.8–2.2 fold |  |  |  |  |  |  |  |  |  |  |  |  |  |  |  |  | 
O=C(NOC[C@H](O)CO)c1ccc(F)c(F)c1Nc1ccc(I)cc1F [PD-0325901] | 1.8–2.2 fold | significant accumulation | one | 15 mg twice daily (B.D) | > 15 mg twice a day (B.D) | slightly higher | ≥ 60 | 8 | reached levels consistent with those required to inhibit MEK1/2 activity at all dose levels | 1.02 to 2.27 |  |  |  |  |  |  |  | 
C[C@@H](Oc1cc(-c2cnn(C3CCNCC3)c2)cnc1N)c1c(Cl)ccc(F)c1Cl [crizotinib] |  |  |  |  |  |  |  |  |  | 2.76 to 5.21 | 62 | 124 | No patients | 200 | reached steady state by day 21 | > 62 | 1.6–2.6 fold | did not appear to affect
